Measurements published in article PMC10396955, “2-Oxabicyclo[2.1.1]hexanes as saturated bioisosteres of the ortho-substituted phenyl ring” (Nature Chemistry, 2023).
In brackets after ≈: the same amount, converted by molar mass. Where two headings read alike, the source gives them in different places.

Key:
[1] = Kinetic solubility in phosphate-buffered saline, pH 7.4; format: physicochemical; settings: for solubility at 2 h: 25 °C, pH 7.4, aqueous buffer, kinetic from dmso stock
Procedure: Analysis of Aqueous Solubility […]
compound (Ondansetron) were assessed for kinetic solubility in phosphate-buffered saline, pH […]
Phosphate buffered saline, pH 7.4 (Sigma-Aldrich, USA; Cat #P3813) […]
MultiScreen HTS 96 Well Filter Plates (Millipore, Ireland; Cat # MSGVS2210) […]
Matrix Multichannel Electronic Pipette 2-125 µL, 5-250 µL, 15-1250 µL (Thermo Scientific, […]
Vacuum pump (Millipore, USA; Model # XX5500000)
The measurements were performed using SpectraMax Plus reader in UV-Vis mode. Acquisition and analysis of the data were performed using SoftMax Pro v.5.4 (Molecular Devices) and Excel […]
Kinetic solubility assay was performed according to the Enamine’s aqueous solubility SOP.
Briefly, using a 20 mM stock solution of the compound in 100% DMSO dilutions were prepared to a theoretical concentration of 400 μM in duplicates in phosphate-buffered saline pH 7.4 […]
for two hours and then filtered through HTS filter plates using a vacuum manifold. The filtrates of test compounds were diluted 2-fold with acetonitrile with 2% DMSO before measuring.
In parallel, compound dilutions in acetonitrile/PBS (1:1) were prepared to theoretical […]
DMSO to generate calibration curves. Ondansetron was used as reference compound to control proper assay performance. 200 μl of each sample was transferred to 96-well plate and measured in 200-550 nm range with 5 nm step.
The concentrations of compounds in PBS filtrate are calculated using a dedicated Microsoft Excel calculation script. Proper absorbance wavelengths for calculations are selected for each compound manually based on absorbance maximums (absolute absorbance unit values for the minimum and maximum concentration points within 0 – 3 OD range). Each of the final datasets is additionally visually evaluated by the operator and goodness of fit (R2) is calculated for each calibration curve. The effective range of this assay is approximately 2-400 μM and the […]

physchem = format: physicochemical; settings: for D (partition ratio), incubation 1 / D (partition ratio), incubation 2 / D (partition ratio), incubation 3: Table S2, n-octanol/PBS pH 7.4
Procedure: Determination of Distribution Coefficient (LogD, pH 7.4) […]
n-octanol – phosphate buffered saline (PBS), pH 7.4. Distribution coefficient (or LogD) is a […]
Phosphate buffered saline, tablet (Sigma-Aldrich, USA; Cat # P4417)
Acetic acid (Enamine, Ukraine.)
DMSO stock solutions of the test compounds 10mM
Gradient HPLC system (Shimadzu, Japan)
MTR22 Multi Mix Rotator (UNICO, USA)
Laboratory Centrifuge, Sigma 4-15C, Qiagen (SIGMA GmbH, Germany) […]
allowed to mix in a rotator for 1 h at 30 rpm. Phase separation was assured by centrifugation for […]
dilution. The samples (both phases) were analyzed using a HPLC system coupled with a tandem mass spectrometer. Mebendazole was used as a reference compound. […]
where: SO – peak area of the analyte in octanol phase
S P – peak area of the analyte in PBS buffer do – dilution coefficient for octanol phase dp – dilution coefficient for aqueous phase

[2] = Metabolic stability in human liver microsomes; format: in vitro ADME; settings: both sexes
Procedure: (§1) The data acquisition and system control was performed using Analyst 1.6.3 software from AB Sciex. Methods Microsomal incubations were carried out in 96-well plates in 5 aliquots of 30 μL each (one for each time point). […] In the control reactions the NADPH-cofactor system was substituted with phosphate buffer. […] Each reaction was performed in duplicates. Five time points over 40 minutes were analyzed. The reactions were stopped by adding 4 volumes of methanol containing internal standard to incubation aliquots, followed by protein sedimentation by centrifuging at 5500 rpm for 4 minutes. […]. Supernatants were analyzed using the HPLC system coupled with tandem mass spectrometer. […] In some cases, the last time point is excluded from the calculations to ensure acceptable logarithmic linearity of decay.

human liver microsomes = assay: Metabolic stability in human liver microsomes; format: in vitro ADME
Procedure: as §1

Fusarium oxysporum = assay: Antifungal susceptibility testing (MIC, CLSI M38-A2 microdilution); format: cell-based
Procedure: (§2) page 252: Antifungal susceptibility testing (determination of MIC values) The antifungal susceptibility tests were performed according to the Clinical and Laboratory Standards Institute (CLSI) […]-A2 protocol for mycelial fungi (1). Stock solutions were prepared by dissolving an appropriate amount of testing compounds in DMSO. Solutions of test compounds were added to the wells of a 96-well polystyrene microtiter plate (Colstar, USA) in the concentration range from 0.5 to 0.001 mg/mL. Mycelium growth was monitored photometrically at 490 nm by measuring the optical density of each well. Measurements were carried out two times: immediately after adding all components (RPMI 1640 broth, conidial suspension, test compound solutions) and after incubation plate at 26 °C for 48 h (2). MICs were the lowest testing compound concentrations that produced partial growth inhibition (50% of optical density relative to the control without testing compounds). The tests were performed in triplicate Results : Table S6. The MIC values of Fluxapyroxad , Boscalid , and their saturated analogues against Fusarium oxysporum , and Fusarium verticillioides Antifungal compaunds MIC, mg/mL Fusarium oxysporum Fusarium verticillioides Fluxapyroxad -* 0.250 Analogue (±)- 28 0.125 0.125 […] of 0.063 mg/mL. […]

Fusarium verticillioides = assay: as above; format: cell-based
Procedure: as §2

[3] = phosphate-buffered saline, Table S1, incubation 1, read-out: PBS solubility, pH 7.4, Incubation 1
[4] = phosphate-buffered saline, Table S1, incubation 2, read-out: PBS solubility, pH 7.4, Incubation 2
[5] = phosphate-buffered saline, experimental kinetic solubility in phosphate-buffered saline at pH 7.4, Fig. 3, read-out: Solubility
[6] = pH 7.4, LogD, pH 7.4, incubation 1
[7] = pH 7.4, LogD, pH 7.4, incubation 3
[8] = human, liver microsomes, pH 7.4, human liver microsomes, 2 μM, 37 °C, with NADPH, 7 min
[9] = human, liver microsomes, pH 7.4, human liver microsomes, 2 μM, 37 °C, with NADPH, 15 min
[10] = human, liver microsomes, pH 7.4, human liver microsomes, 2 μM, 37 °C, with NADPH, 25 min, read-out: % Remaining, Mean of 2
[11] = human, liver microsomes, pH 7.4, human liver microsomes, 2 μM, 37 °C, with NADPH, 40 min, read-out: % Remaining, Mean of 2
[12] = human, liver microsomes, pH 7.4, human liver microsomes, 0.42 mg protein per ml, Table S3, * approximate due to high stability, read-out: Clint
[13] = human, liver microsomes, pH 7.4, human liver microsomes, * approximate due to high stability, read-out: t1/2
[14] = pH 7.4, human liver microsomes, no NADPH cofactor, 40 min, ** instability partially or completely not determined by CYP450 activity, read-out: % Remaining without cofactor, Mean of 2
[15] = pH 7.4, human liver microsomes, elimination constant, * approximate due to high stability, read-out: kel (converted)
[16] = Table S6, lowest concentration giving 50% of optical density relative to control, 26 °C, 48 h
[17] = Fusarium verticillioides, 48 h, Table S6, lowest concentration giving 50% of optical density relative to control, 26 °C, 48 h, read-out: MIC
[18] = pH 7.4, LogD, pH 7.4, incubation 2
[19] = human, microsomes, pH 7.4, % Remaining, Mean of 2

SMILES | solubility at 2 h [1, 3] [µM] | solubility at 2 h [1, 4] [µM] | solubility at 2 h [1, 5] [µM] | D (partition ratio), incubation 1 (physchem) | D (partition ratio), incubation 2 (physchem) | D (partition ratio), incubation 3 (physchem) | logD at 1 h (physchem; pH 7.4, LogD, pH 7.4 (mean)) | logD at 1 h (physchem; [6]) | logD at 1 h (physchem; [7]) | logD at 1 h (physchem; pH 7.4, logD (7.4)) | remaining at […], 2 µM [2, 8] [%] | remaining at […], 2 µM [2, 9] [%] | remaining at 25 min, 2 µM [2, 10] [%] | remaining at 40 min, 2 µM [2, 11] [%] | microsomal CLint at 2 µM [2, 12] [µL/min/mg] | half-life at 2 µM [2, 13] [h] | remaining at 40 min, 2 µM [2, 14] [%] | k el at 2 µM [2, 15] [s⁻¹] | MIC (Fusarium oxysporum; Fig. 4e) [mg/L] | MIC (Fusarium oxysporum; [16]) [mg/L] | also measured
Cn1cc(C(=O)N[C@@H]2[C@@H]3CC[C@@]2(c2cc(F)c(F)c(F)c2)C3)c(C(F)F)n1 (relative stereo) [Compound 28] | 35 (≈ 13.5 µg/mL) | 33 (≈ 12.7 µg/mL) | 34 (≈ 13.1 µg/mL) | 3.24E+04 | 2.00E+04 | 1.32E+04 | 4.32 | 4.51 | 4.12 | 4.3 | 78 | 72 | 57 | 55 | 35 | 0.79 | 99 | 0.00025 | 125 (≈ 324 µM) | 125 (≈ 324 µM) | CIint, intrinsic clearance (human liver microsomes; human liver microsomes): 35 µL/min/mg; MIC (Fusarium verticillioides; [17]): 125 mg/L (≈ 324 µM); MIC (Fusarium verticillioides; Fusarium verticillioides, Fig. 4e, read-out: MIC): 125 mg/L (≈ 324 µM)
O=C(N[C@@H]1[C@@H]2CC[C@@]1(c1ccc(Cl)cc1)C2)c1cccnc1Cl (relative stereo) [Compound 30] | 17 (≈ 5.9 µg/mL) | 18 (≈ 6.25 µg/mL) | 17 ± 0.3 (≈ 5.9 µg/mL) | 4.87E+02 | 3.16E+02 | 6.11E+02 | 2.66 | 2.69 | 2.79 | 3.5 ± 0.1 | 94 | 95 | 90 | 80 | 12 | 2.31 | 71 | 8.33e-05 | 31 (≈ 89.3 µM) | 31 (≈ 89.3 µM) | increase of solubility relative to boscalid ([1]; kinetic solubility, PBS pH 7.4): ~ 50%; solubility at 2 h ([1]; phosphate-buffered saline, Table S1, mean of 2 incubations, 2 h, 2% DMSO, effective range approx. 2-400 μM, read-out: PBS solubility, pH 7.4, Mean): 17 µM (≈ 5.9 µg/mL); logD at 1 h (physchem; [18]): 2.5; CIint, intrinsic clearance (human liver microsomes; human liver microsomes): 12 µL/min/mg; MIC (Fusarium verticillioides; Fig. 4e): 0.031 mg ml^–1; MIC (Fusarium verticillioides; [17]): 31 mg/L (≈ 89.3 µM)
O=C(Nc1ccccc1-c1ccc(Cl)cc1)c1cccnc1Cl [Boscalid, reference compound] |  |  |  | 3.62E+03 | 2.86E+03 | 4.07E+03 | 3.55 | 3.56 | 3.61 | 3.6 |  |  |  |  |  |  |  |  | 250 (≈ 728 µM) | 250 (≈ 728 µM) | solubility at 2 h ([1]; PBS solubility, pH 7.4, Incubation 1): 9 µM (≈ 3.09 µg/mL); solubility at 2 h ([1]; PBS solubility, pH 7.4, Incubation 2): 13 µM (≈ 4.46 µg/mL); solubility at 2 h ([1]; Solubility): 11 µM (≈ 3.78 µg/mL); logD at 1 h (physchem; [18]): 3.46; remaining at 40 min, 2 µM ([2]; human, microsomes, pH 7.4, % Remaining without cofactor, Mean of 2): 59%; remaining at 25 min, 2 µM [2, 19]: 75%; remaining at 40 min, 2 µM [2, 19]: 66%; microsomal CLint at 2 µM ([2]; human, microsomes, pH 7.4, Clint): 26 µL/min/mg; half-life at 2 µM ([2]; human, microsomes, pH 7.4, t1/2): 1.06 h; k el at 2 µM ([2]; human, pH 7.4): 0.000183 s⁻¹; CIint, intrinsic clearance (human liver microsomes; human, microsomes): 26 µL/min/mg; inhibition at 63 µg/mL (Fusarium verticillioides; Fusarium verticillioides, at a concentration of 0.063 mg/mL, MIC not reached, read-out: Maximal inhibition of growth): 39.2 ± 2.7%
